test system: not listed separately; experiment: logP determination by HPLC on reversed-phase column (EEC Directive 79/831 Annex V.A8); type: physicochemical; settings: pH 2.3
Protocol: The logP values given in the Preparation Examples and Tables above are determined in accordance with EEC Directive 79/831 Annex V.A8 by HPLC (High Performance Liquid Chromatography) using a reversed-phase column (C 18). Temperature: 43° C.
The determination in the acidic range is carried out at pH 2.3 using the mobile phases 0.1% aqueous phosphoric acid and acetonitrile; linear gradient from 10% acetonitrile to 90% acetonitrile.
Calibration is carried out using unbranched alkan-2-ones (having 3 to 16 carbon atoms) with known logP values (determination of the logP values by the retention times using linear interpolation between two successive alkanones).

SMILES | logP (pH 2)/m.p. | logP (pH 2)
N#Cc1cnn(C2CN(C(=O)Nc3ccc(OC(F)(F)F)cc3)N=C2c2ccc(Cl)cc2)c1 (stereo not drawn) [Example 3] | 3.91 | –
N#Cc1cnn(C2CN(C(=O)Nc3ccc(SC(F)(F)F)cc3)N=C2c2ccc(Cl)cc2)c1 (stereo not drawn) [Example 5] | 4.27 | –
COC(=O)N(C(=O)N1CC(n2cc(C#N)cn2)C(c2ccc(Cl)cc2)=N1)c1ccc(OC(F)(F)F)cc1 (stereo not drawn) [Example 6] | 3.82 | –
CCOC(=O)N(C(=O)N1CC(n2cc(C#N)cn2)C(c2ccc(Cl)cc2)=N1)c1ccc(OC(F)(F)F)cc1 (stereo not drawn) [Example 7] | 4.06 | –
N#Cc1cnn(C2CN(C(=O)Nc3ccc(SC(F)(F)F)cc3)N=C2c2ccc(Br)cc2)c1 (stereo not drawn) [Example 10] | 4.35 | –
N#Cc1cnn(C2CN(C(=O)Nc3ccc([S+]([O-])C(F)(F)F)cc3)N=C2c2ccc(Cl)cc2)c1 (stereo not drawn) [Example 12] | 3.28 | –
N#Cc1cnn(C2CN(C(=O)Nc3ccc(OC(F)(F)F)cc3)N=C2c2ccc(SC(F)(F)F)cc2)c1 (stereo not drawn) [Example 15] | 4.39 | –
CNC(=O)c1cnn(C2CN(C(=O)Nc3ccc(SC(F)(F)F)cc3)N=C2c2ccc(Cl)cc2)c1 (stereo not drawn) [Example 21] | 3.39 | –
CNC(=O)c1cnn(C2CN(C(=O)Nc3ccc(S(=O)(=O)C(F)(F)F)cc3)N=C2c2ccc(Cl)cc2)c1 (stereo not drawn) [Example 22] | 3.00 | –
NC(=O)c1cnn(C2CN(C(=O)Nc3ccc(OC(F)(F)F)cc3)N=C2c2ccc(Cl)cc2)c1 (stereo not drawn) [Example 23] | 2.94 | –
NC(=O)c1cnn(C2CN(C(=O)Nc3ccc(S(=O)(=O)C(F)(F)F)cc3)N=C2c2ccc(Cl)cc2)c1 (stereo not drawn) [Example 25] | 2.94 | –
CN(C)C(=O)c1cnn(C2CN(C(=O)Nc3ccc(SC(F)(F)F)cc3)N=C2c2ccc(Cl)cc2)c1 (stereo not drawn) [Example 26] | 3.27 | –
N#Cc1cnn(C2CN(C(=O)Nc3ccc(Br)cc3)N=C2c2ccc(Cl)cc2)c1 (stereo not drawn) [Example 28] | 3.73 | –
N#Cc1ccc(NC(=O)N2CC(n3cc(C#N)cn3)C(c3ccc(Cl)cc3)=N2)cc1 (stereo not drawn) [Example 29] | 3.00 | –
N#CCN(C(=O)N1CC(n2cc(C#N)cn2)C(c2ccc(Cl)cc2)=N1)c1ccc(SC(F)(F)F)cc1 (stereo not drawn) [Example 32] | 3.90 | –
N#CCN(C(=O)N1CC(n2cc(C#N)cn2)C(c2ccc(Br)cc2)=N1)c1ccc(OC(F)(F)F)cc1 (stereo not drawn) [Example 33] | 3.75 | –
N#Cc1cnn(C2CN(C(=O)Nc3ccc(C(F)(F)F)cc3)N=C2c2ccc(Br)cc2)c1 (stereo not drawn) [Example 37] | 3.94 | –
N#Cc1cnn(C2CNN=C2c2ccc(I)cc2)c1 (stereo not drawn) [II-3] | – | 2.33
N#Cc1cnn(C2CNN=C2c2ccc(SC(F)(F)F)cc2)c1 (stereo not drawn) [II-4] | – | 2.78
CN(C)C(=O)c1cnn(C2CNN=C2c2ccc(Cl)cc2)c1 (stereo not drawn) [II-6] | – | 1.54
N#Cc1cnn(CC(=O)c2ccc(I)cc2)c1 [VI-4] | – | 2.47
N#Cc1cnn(CC(=O)c2ccc(SC(F)(F)F)cc2)c1 [VI-5] | – | 2.91
COC(=O)c1cnn(CC(=O)c2ccc(Cl)cc2)c1 [VI-6] | – | 2.20
CNC(=O)c1cnn(CC(=O)c2ccc(Cl)cc2)c1 [VI-7] | – | 1.44

Next, values leading:

logP (pH 2)/m.p. | logP (pH 2) | SMILES
3.86 | – | N#Cc1cnn(C2CN(C(=O)Nc3ccc(C(F)(F)F)cc3)N=C2c2ccc(Cl)cc2)c1 (stereo not drawn) [Example 4]
4.00 | – | N#Cc1cnn(C2CN(C(=O)Nc3ccc(OC(F)(F)F)cc3)N=C2c2ccc(Br)cc2)c1 (stereo not drawn) [Example 9]
3.88 | – | N#Cc1cnn(C2CN(C(=O)Nc3ccc(S(=O)(=O)C(F)(F)F)cc3)N=C2c2ccc(Br)cc2)c1 (stereo not drawn) [Example 11]
4.12 | – | N#Cc1cnn(C2CN(C(=O)Nc3ccc(OC(F)(F)F)cc3)N=C2c2ccc(I)cc2)c1 (stereo not drawn) [Example 13]
4.48 | – | N#Cc1cnn(C2CN(C(=O)Nc3ccc(SC(F)(F)F)cc3)N=C2c2ccc(I)cc2)c1 (stereo not drawn) [Example 14]
4.73 | – | N#Cc1cnn(C2CN(C(=O)Nc3ccc(SC(F)(F)F)cc3)N=C2c2ccc(SC(F)(F)F)cc2)c1 (stereo not drawn) [Example 16]
3.95 | – | COC(=O)c1cnn(C2CN(C(=O)Nc3ccc(OC(F)(F)F)cc3)N=C2c2ccc(Cl)cc2)c1 (stereo not drawn) [Example 17]
3.78 | – | N#Cc1cnn(C2CN(C(=O)Nc3ccc(S(=O)(=O)C(F)(F)F)cc3)N=C2c2ccc(Cl)cc2)c1 (stereo not drawn) [Example 18]
3.27 | – | CN(C)C(=O)c1cnn(C2CN(C(=O)Nc3ccc(OC(F)(F)F)cc3)N=C2c2ccc(Cl)cc2)c1 (stereo not drawn) [Example 19]
3.07 | – | CNC(=O)c1cnn(C2CN(C(=O)Nc3ccc(OC(F)(F)F)cc3)N=C2c2ccc(Cl)cc2)c1 (stereo not drawn) [Example 20]
3.24 | – | NC(=O)c1cnn(C2CN(C(=O)Nc3ccc(SC(F)(F)F)cc3)N=C2c2ccc(Cl)cc2)c1 (stereo not drawn) [Example 24]
3.27 | – | CN(C)C(=O)c1cnn(C2CN(C(=O)Nc3ccc(S(=O)(=O)C(F)(F)F)cc3)N=C2c2ccc(Cl)cc2)c1 (stereo not drawn) [Example 27]
3.90 | – | N#Cc1cnn(C2CN(C(=O)Nc3ccc(I)cc3)N=C2c2ccc(Cl)cc2)c1 (stereo not drawn) [Example 30]
3.42 | – | N#CCN(C(=O)N1CC(n2cc(C#N)cn2)C(c2ccc(Cl)cc2)=N1)c1ccc(Cl)cc1 (stereo not drawn) [Example 31]
3.99 | – | N#CCN(C(=O)N1CC(n2cc(C#N)cn2)C(c2ccc(Br)cc2)=N1)c1ccc(SC(F)(F)F)cc1 (stereo not drawn) [Example 34]
3.63 | – | N#CCN(C(=O)N1CC(n2cc(C#N)cn2)C(c2ccc(Br)cc2)=N1)c1ccc(C(F)(F)F)cc1 (stereo not drawn) [Example 35]
3.56 | – | N#CCN(C(=O)N1CC(n2cc(C#N)cn2)C(c2ccc(Cl)cc2)=N1)c1ccc(C(F)(F)F)cc1 (stereo not drawn) [Example 36]
– | 2.20 | N#Cc1cnn(C2CNN=C2c2ccc(Br)cc2)c1 (stereo not drawn) [II-2]
– | 2.13 | COC(=O)c1cnn(C2CNN=C2c2ccc(Cl)cc2)c1 (stereo not drawn) [II-5]
– | 1.38 | CNC(=O)c1cnn(C2CNN=C2c2ccc(Cl)cc2)c1 (stereo not drawn) [II-7]
– | 1.28 | NC(=O)c1cnn(C2CNN=C2c2ccc(Cl)cc2)c1 (stereo not drawn) [II-8]
– | 2.31 | N#Cc1cnn(CC(=O)c2ccc(Br)cc2)c1 [VI-3]
– | 1.33 | NC(=O)c1cnn(CC(=O)c2ccc(Cl)cc2)c1 [VI-8]
– | 2.82 | N#CCNc1ccc(SC(F)(F)F)cc1 [XII-2]
– | 2.36 | N#CCNc1ccc(C(F)(F)F)cc1 [XII-3]

same assay, conditions: reversed-phase C18 HPLC column; values in the text of the Preparation Examples; HPLC, acidic range pH 2.3, 43° C.; read-out: logP (pH 2)

SMILES | chromatographic logP
CN(C)C(=O)c1cnn(CC(=O)c2ccc(Cl)cc2)c1 [VI-2, N,N-dimethyl-1-(4-chlorophenacyl)-pyrazole-4-carboxamide] | 1.62
N#CCNc1ccc(OC(F)(F)F)cc1 [XII-1, N-cyanomethyl-4-trifluoromethoxyaniline] | 2.49

Other lines, results leading:

chromatographic logP | SMILES
1.67 | O=C(O)c1cnn(CC(=O)c2ccc(Cl)cc2)c1 [1-(4-chlorophenacyl)-pyrazole-4-carboxylic acid]
3.64 | N#Cc1cnn(C2CN(C(=O)Nc3ccc(Cl)cc3)N=C2c2ccc(Cl)cc2)c1 (stereo not drawn) [Example 1, 4′-chloro-3-(4-chlorophenyl)-4-(4-cyanopyrazol-1-yl)-4,5-dihydro-1-pyrazolecarboxanilide]
3.68 | N#CCN(C(=O)N1CC(n2cc(C#N)cn2)C(c2ccc(Cl)cc2)=N1)c1ccc(OC(F)(F)F)cc1 (stereo not drawn) [Example 2, 3-(4-chlorophenyl)-4-(4-cyanopyrazol-1-yl)-4,5-dihydro-1-pyrazole-(N-cyanomethyl)-4′-trifluoromethoxycarboxanilide]

test system: Lucilia cuprina larvae; experiment: Blowfly larvae test/development-inhibitory action; type: in vivo; settings: 20 ppm; after 48 h
Protocol: 20 mg of active compound are dissolved in 1 ml of dimethyl sulphoxide. More dilute concentrations are prepared by dilution with distilled water.
About 20 Lucilia cuprina larvae are introduced into a test tube which contains about 1 cm^3 of horsemeat and 0.5 ml of the preparation of active compound to be tested. The activity of the preparation of active compound is determined after 24 and 48 hours. The test tubes are transferred into a beaker whose bottom is covered with sand. After a further 2 days, the test tubes are removed and the pupae are counted.
The activity of the preparation of active compound is assessed using the number of flies that have hatched after 1.5 times the development period of an untreated control. 100% means that none of the flies have hatched; 0% means that all of the flies have hatched normally.

SMILES | activity/kill rate in % after 48 h
N#Cc1cnn(C2CN(C(=O)Nc3ccc(OC(F)(F)F)cc3)N=C2c2ccc(Cl)cc2)c1 (stereo not drawn) [drawing 78] | 100/100%
COC(=O)N(C(=O)N1CC(n2cc(C#N)cn2)C(c2ccc(Cl)cc2)=N1)c1ccc(OC(F)(F)F)cc1 (stereo not drawn) [drawing 79] | 100/100%
N#Cc1cnn(C2CN(C(=O)Nc3ccc(OC(F)(F)F)cc3)N=C2c2ccc(Br)cc2)c1 (stereo not drawn) [drawing 81] | 100/100%
N#Cc1cnn(C2CN(C(=O)Nc3ccc(S(=O)(=O)C(F)(F)F)cc3)N=C2c2ccc(Br)cc2)c1 (stereo not drawn) [drawing 82] | 100/100%
N#Cc1cnn(C2CN(C(=O)Nc3ccc(OC(F)(F)F)cc3)N=C2c2ccc(I)cc2)c1 (stereo not drawn) [drawing 83] | 100/100%
N#Cc1cnn(C2CN(C(=O)Nc3ccc(S(=O)(=O)C(F)(F)F)cc3)N=C2c2ccc(Cl)cc2)c1 (stereo not drawn) [drawing 84] | 100/100%
N#CCN(C(=O)N1CC(n2cc(C#N)cn2)C(c2ccc(Cl)cc2)=N1)c1ccc(OC(F)(F)F)cc1 (stereo not drawn) [drawing 85] | 100/100%

same assay, conditions: 100 ppm; after 48 h

SMILES | activity/kill rate in % after 48 h
N#Cc1cnn(C2CN(C(=O)Nc3ccc(OC(F)(F)F)cc3)N=C2c2ccc(Cl)cc2)c1 (stereo not drawn) [drawing 78] | 100/100%
COC(=O)N(C(=O)N1CC(n2cc(C#N)cn2)C(c2ccc(Cl)cc2)=N1)c1ccc(OC(F)(F)F)cc1 (stereo not drawn) [drawing 79] | 100/100%
N#Cc1cnn(C2CN(C(=O)Nc3ccc(OC(F)(F)F)cc3)N=C2c2ccc(Br)cc2)c1 (stereo not drawn) [drawing 81] | 100/100%
N#Cc1cnn(C2CN(C(=O)Nc3ccc(S(=O)(=O)C(F)(F)F)cc3)N=C2c2ccc(Br)cc2)c1 (stereo not drawn) [drawing 82] | 100/100%
N#Cc1cnn(C2CN(C(=O)Nc3ccc(OC(F)(F)F)cc3)N=C2c2ccc(I)cc2)c1 (stereo not drawn) [drawing 83] | 100/100%
N#Cc1cnn(C2CN(C(=O)Nc3ccc(S(=O)(=O)C(F)(F)F)cc3)N=C2c2ccc(Cl)cc2)c1 (stereo not drawn) [drawing 84] | 100/100%
N#CCN(C(=O)N1CC(n2cc(C#N)cn2)C(c2ccc(Cl)cc2)=N1)c1ccc(OC(F)(F)F)cc1 (stereo not drawn) [drawing 85] | 100/100%

same assay, conditions: Lucilia cuprina, 48 h, read-out: activity/kill rate in % after 48 h

SMILES | pest or weed control at 100 ppm
CCOC(=O)N(C(=O)N1CC(n2cc(C#N)cn2)C(c2ccc(Cl)cc2)=N1)c1ccc(OC(F)(F)F)cc1 (stereo not drawn) [drawing 80] | 100%

Source: patent US20090143454A1, “Pyrazoline Derivatives and Their Use As Pesticides” (BAYER CROPSCIENCE AG, priority 2001, published 2009)
